{
  "source": "paper PMC11203676",
  "about": "“Synthesis, Molecular Electron Density Theory Study, Molecular Docking, and Pharmacological Evaluation of New Coumarin–Sulfonamide–Nitroindazolyl–Triazole Hybrids as Monoamine Oxidase Inhibitors” (International Journal of Molecular Sciences, 2024)",
  "key": {"hMAO-B": {"target": "T1, hMAO-B (Homo sapiens, UniProt P27338)", "T1 construct": "purchased Sigma Aldrich (Milan, Italy); host or cells: baculovirus-infected insect cells", "T1 sequence (P27338 1-520)": "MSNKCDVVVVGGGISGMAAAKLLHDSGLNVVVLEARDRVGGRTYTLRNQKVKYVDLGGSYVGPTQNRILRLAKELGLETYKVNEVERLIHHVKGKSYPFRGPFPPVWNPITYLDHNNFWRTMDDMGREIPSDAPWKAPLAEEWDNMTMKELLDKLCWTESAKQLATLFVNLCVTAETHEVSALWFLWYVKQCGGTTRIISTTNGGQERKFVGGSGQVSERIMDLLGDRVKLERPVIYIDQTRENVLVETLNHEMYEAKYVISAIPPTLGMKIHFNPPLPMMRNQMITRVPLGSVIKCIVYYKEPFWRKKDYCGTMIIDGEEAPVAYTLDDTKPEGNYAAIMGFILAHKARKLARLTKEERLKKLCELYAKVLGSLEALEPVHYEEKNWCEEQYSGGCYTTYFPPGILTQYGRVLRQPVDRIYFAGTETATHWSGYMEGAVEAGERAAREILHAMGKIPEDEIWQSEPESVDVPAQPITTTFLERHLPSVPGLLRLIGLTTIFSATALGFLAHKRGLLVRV", "test": "MAO-B inhibition, fluorimetric method with kynuramine as substrate", "format": "biochemical", "conditions": "read-out: hMAO-B % Inhibition", "protocol": "(§1) Human recombinant AChE, BChE from human serum, and human MAOs from baculovirus-infected insect cells were purchased from Sigma Aldrich (Milan, Italy). […] All experiments were carried out in triplicate and results expressed as mean ± SEM.\n(§2) AChE/BChE and MAO A/B inhibition were, respectively, determined with the spectrophotometric method of Ellman, and a fluorimetric method using kynuramine as MAO substrate, as previously described."}, "[1]": {"target": "T2, hBChE (BChE from human serum) (Homo sapiens, UniProt P06276)", "T2 construct": "BChE from human serum; purchased Sigma Aldrich (Milan, Italy); host or cells: human serum", "T2 sequence (P06276 29-602)": "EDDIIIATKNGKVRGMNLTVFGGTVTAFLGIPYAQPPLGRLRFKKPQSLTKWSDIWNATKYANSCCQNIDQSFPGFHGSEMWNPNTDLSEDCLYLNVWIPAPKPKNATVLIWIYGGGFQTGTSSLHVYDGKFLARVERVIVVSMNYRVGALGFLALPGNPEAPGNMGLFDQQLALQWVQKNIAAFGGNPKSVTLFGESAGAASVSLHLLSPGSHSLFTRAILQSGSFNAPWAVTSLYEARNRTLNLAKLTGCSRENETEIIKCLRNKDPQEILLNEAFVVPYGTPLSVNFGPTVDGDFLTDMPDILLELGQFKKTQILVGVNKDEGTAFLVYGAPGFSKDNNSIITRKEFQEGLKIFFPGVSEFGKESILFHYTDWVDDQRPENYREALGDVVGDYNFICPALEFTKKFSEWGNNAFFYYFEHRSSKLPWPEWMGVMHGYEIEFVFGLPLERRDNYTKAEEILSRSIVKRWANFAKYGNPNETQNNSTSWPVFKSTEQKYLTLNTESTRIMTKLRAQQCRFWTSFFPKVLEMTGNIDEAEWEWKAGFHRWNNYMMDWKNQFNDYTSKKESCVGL", "test": "BChE inhibition, spectrophotometric method of Ellman", "format": "biochemical", "conditions": "at 10 µM concentration; ni: no inhibition; mean ± SEM (n = 3)", "protocol": "as §1, §2"}, "hMAO-A": {"target": "T3, hMAO-A (Homo sapiens, UniProt P21397)", "T3 construct": "purchased Sigma Aldrich (Milan, Italy); host or cells: baculovirus-infected insect cells", "T3 sequence (P21397 1-527)": "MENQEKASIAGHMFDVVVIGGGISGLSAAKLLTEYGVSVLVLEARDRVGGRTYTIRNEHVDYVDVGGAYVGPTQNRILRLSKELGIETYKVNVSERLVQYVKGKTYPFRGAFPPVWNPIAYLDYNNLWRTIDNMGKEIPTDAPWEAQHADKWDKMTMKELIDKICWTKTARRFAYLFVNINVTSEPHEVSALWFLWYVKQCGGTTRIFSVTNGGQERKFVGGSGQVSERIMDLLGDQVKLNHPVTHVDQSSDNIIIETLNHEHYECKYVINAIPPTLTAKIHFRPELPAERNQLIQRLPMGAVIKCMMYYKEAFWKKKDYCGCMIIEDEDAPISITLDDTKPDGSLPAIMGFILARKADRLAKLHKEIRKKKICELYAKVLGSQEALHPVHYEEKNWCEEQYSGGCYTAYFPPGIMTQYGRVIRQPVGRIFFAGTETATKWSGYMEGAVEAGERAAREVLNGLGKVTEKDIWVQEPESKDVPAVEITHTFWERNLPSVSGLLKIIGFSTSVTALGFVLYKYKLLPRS", "test": "biochemical", "conditions": "for inhibition at 10 µM: read-out: hMAO-A % Inhibition", "protocol": "as §1, §2"}, "[2]": {"target": "T4, hAChE (human recombinant AChE) (Homo sapiens, UniProt P22303)", "T4 construct": "purchased Sigma Aldrich (Milan, Italy)", "T4 sequence (P22303 32-614)": "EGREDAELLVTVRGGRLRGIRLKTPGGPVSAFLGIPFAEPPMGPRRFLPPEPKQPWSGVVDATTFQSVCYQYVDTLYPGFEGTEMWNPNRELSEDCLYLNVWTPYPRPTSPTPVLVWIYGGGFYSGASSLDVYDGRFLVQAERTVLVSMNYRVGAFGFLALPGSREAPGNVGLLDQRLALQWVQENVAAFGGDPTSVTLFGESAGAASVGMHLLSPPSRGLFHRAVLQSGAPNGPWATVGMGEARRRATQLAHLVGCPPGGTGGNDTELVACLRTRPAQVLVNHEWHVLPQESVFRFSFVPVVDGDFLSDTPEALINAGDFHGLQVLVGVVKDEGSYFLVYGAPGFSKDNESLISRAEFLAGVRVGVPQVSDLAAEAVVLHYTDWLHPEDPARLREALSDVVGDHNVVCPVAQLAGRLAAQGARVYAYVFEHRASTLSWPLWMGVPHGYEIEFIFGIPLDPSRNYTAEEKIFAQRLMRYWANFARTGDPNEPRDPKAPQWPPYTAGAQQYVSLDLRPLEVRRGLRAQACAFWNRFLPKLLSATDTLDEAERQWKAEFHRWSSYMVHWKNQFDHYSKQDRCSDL", "test": "biochemical", "protocol": "as §1, §2"}},
  "data": [
    {"compound": "CN(c1ccc2oc(=O)ccc2c1)S(=O)(=O)c1ccc(Cl)cc1", "values": [
      {"measurement": "melting point", "value": "244 to 246", "unit": "°C"}
    ]},
    {"compound": "Cc1ccc(S(=O)(=O)Nc2ccc3oc(=O)ccc3c2)cc1", "note": "[11a, 4-Methyl-N-(2-oxo-2H-chromen-6-yl)benzenesulfonamide]", "values": [
      {"measurement": "inhibition at 10 µM", "setting": "hMAO-B", "value": "45 ± 2", "unit": "%"},
      {"measurement": "hBChE % Inhibition", "setting": "[1]", "value": "ni"},
      {"measurement": "IC50", "setting": "hMAO-A", "value": "2.46 ± 0.67", "unit": "µM"},
      {"measurement": "inhibition at 10 µM", "setting": "hMAO-A", "value": "76 ± 3", "unit": "%"},
      {"measurement": "inhibition at 10 µM", "setting": "[2]", "value": "55 ± 3", "unit": "%"}
    ]},
    {"compound": "COc1ccc(S(=O)(=O)Nc2ccc3oc(=O)ccc3c2)cc1", "note": "[11b, 4-Methoxy-N-(2-oxo-2H-chromen-6-yl)benzenesulfonamide]", "values": [
      {"measurement": "inhibition at 10 µM", "setting": "hMAO-B", "value": "34 ± 3", "unit": "%"},
      {"measurement": "hBChE % Inhibition", "setting": "[1]", "value": "ni"},
      {"measurement": "inhibition at 10 µM", "setting": "hMAO-A", "value": "26 ± 3", "unit": "%"},
      {"measurement": "inhibition at 10 µM", "setting": "[2]", "value": "57 ± 4", "unit": "%"}
    ]},
    {"compound": "O=c1ccc2cc(NS(=O)(=O)c3ccc(Cl)cc3)ccc2o1", "note": "[11c, 4-Chloro-N-(2-oxo-2H-chromen-6-yl)benzenesulfonamide]", "values": [
      {"measurement": "inhibition at 10 µM", "setting": "hMAO-B", "value": "26 ± 4", "unit": "%"},
      {"measurement": "hBChE % Inhibition", "setting": "[1]", "value": "ni"},
      {"measurement": "inhibition at 10 µM", "setting": "hMAO-A", "value": "9 ± 4", "unit": "%"},
      {"measurement": "inhibition at 10 µM", "setting": "[2]", "value": "55 ± 3", "unit": "%"}
    ]},
    {"compound": "C#CCN(c1ccc2oc(=O)ccc2c1)S(=O)(=O)c1ccc(C)cc1", "note": "[13a, 4-Methyl-N-(2-oxo-2H-chromen-6-yl)-N-(prop-2-yn-1-yl)benzenesulfonamide]", "values": [
      {"measurement": "inhibition at 10 µM", "setting": "hMAO-B", "value": "12 ± 1", "unit": "%"},
      {"measurement": "hBChE % Inhibition", "setting": "[1]", "value": "ni"},
      {"measurement": "inhibition at 10 µM", "setting": "hMAO-A", "value": "13 ± 5", "unit": "%"},
      {"measurement": "inhibition at 10 µM", "setting": "[2]", "value": "60 ± 3", "unit": "%"}
    ]},
    {"compound": "C#CCN(c1ccc2oc(=O)ccc2c1)S(=O)(=O)c1ccc(OC)cc1", "note": "[13b, 4-Methoxy-N-(2-oxo-2H-chromen-6-yl)-N-(prop-2-yn-1-yl)benzenesulfonamide]", "values": [
      {"measurement": "inhibition at 10 µM", "setting": "hMAO-B", "value": "28 ± 2", "unit": "%"},
      {"measurement": "hBChE % Inhibition", "setting": "[1]", "value": "ni"},
      {"measurement": "inhibition at 10 µM", "setting": "hMAO-A", "value": "22 ± 7", "unit": "%"},
      {"measurement": "inhibition at 10 µM", "setting": "[2]", "value": "49 ± 3", "unit": "%"}
    ]},
    {"compound": "C#CCN(c1ccc2oc(=O)ccc2c1)S(=O)(=O)c1ccc(Cl)cc1", "note": "[13c, 4-Chloro-N-(2-oxo-2H-chromen-6-yl)-N-(prop-2-yn-1-yl)benzenesulfonamide]", "values": [
      {"measurement": "inhibition at 10 µM", "setting": "hMAO-B", "value": "20 ± 2", "unit": "%"},
      {"measurement": "hBChE % Inhibition", "setting": "[1]", "value": "ni"},
      {"measurement": "inhibition at 10 µM", "setting": "hMAO-A", "value": "37 ± 5", "unit": "%"},
      {"measurement": "inhibition at 10 µM", "setting": "[2]", "value": "48 ± 2", "unit": "%"}
    ]},
    {"compound": "Cc1ccc(S(=O)(=O)N(Cc2cn(CCn3ncc4ccc([N+](=O)[O-])cc43)nn2)c2ccc3oc(=O)ccc3c2)cc1", "note": "[14a, 4-Methyl-N-((1-(2-(6-nitro-1H-indazol-1-yl)ethyl)-1H-1,2,3-triazol-4-yl)methyl)-N-(2-oxo-2H-chromen-6-yl)benzenesulfonamide]", "values": [
      {"measurement": "inhibition at 10 µM", "setting": "hMAO-B", "value": "39 ± 3", "unit": "%"},
      {"measurement": "inhibition at 10 µM", "setting": "[1]", "value": "48 ± 4", "unit": "%"},
      {"measurement": "IC50", "setting": "hMAO-A", "value": "14.8 ± 1.6", "unit": "µM"},
      {"measurement": "inhibition at 10 µM", "setting": "hMAO-A", "value": "76 ± 5", "unit": "%"},
      {"measurement": "inhibition at 10 µM", "setting": "[2]", "value": "51 ± 2", "unit": "%"}
    ]},
    {"compound": "COc1ccc(S(=O)(=O)N(Cc2cn(CCn3ncc4ccc([N+](=O)[O-])cc43)nn2)c2ccc3oc(=O)ccc3c2)cc1", "note": "[14b, 4-Methoxy-N-((1-(2-(6-nitro-1H-indazol-1-yl)ethyl)-1H-1,2,3-triazol-4-yl)methyl)-N-(2-oxo-2H-chromen-6-yl)benzenesulfonamide]", "values": [
      {"measurement": "inhibition at 10 µM", "setting": "hMAO-B", "value": "23 ± 4", "unit": "%"},
      {"measurement": "inhibition at 10 µM", "setting": "[1]", "value": "31 ± 5", "unit": "%"},
      {"measurement": "IC50", "setting": "hMAO-A", "value": "16.9 ± 1.9", "unit": "µM"},
      {"measurement": "inhibition at 10 µM", "setting": "hMAO-A", "value": "81 ± 5", "unit": "%"},
      {"measurement": "inhibition at 10 µM", "setting": "[2]", "value": "44 ± 3", "unit": "%"}
    ]},
    {"compound": "O=c1ccc2cc(N(Cc3cn(CCn4ncc5ccc([N+](=O)[O-])cc54)nn3)S(=O)(=O)c3ccc(Cl)cc3)ccc2o1", "note": "[14c, 4-Chloro-N-((1-(2-(6-nitro-1H-indazol-1-yl)ethyl)-1H-1,2,3-triazol-4-yl)methyl)-N-(2-oxo-2H-chromen-6-yl)benzenesulfonamide]", "values": [
      {"measurement": "inhibition at 10 µM", "setting": "hMAO-B", "value": "45 ± 1", "unit": "%"},
      {"measurement": "hBChE % Inhibition", "setting": "[1]", "value": "ni"},
      {"measurement": "IC50", "setting": "hMAO-A", "value": "28 ± 2.2", "unit": "µM"},
      {"measurement": "inhibition at 10 µM", "setting": "hMAO-A", "value": "67 ± 5", "unit": "%"},
      {"measurement": "inhibition at 10 µM", "setting": "[2]", "value": "42 ± 1", "unit": "%"}
    ]}
  ]
}
